From article PMC6257782, “Design, Synthesis, and Biological Evaluation of Benzylamino-Methanone Based Cholesteryl Ester Transfer Protein Inhibitors” (Molecules, 2010)

target: T1, CETP (from rabbit serum) (Oryctolagus cuniculus, UniProt P22687); experiment: fluorescent neutral lipid (CE) transfer assay, BioVision kit; format: biochemical; details: read-out: In vitro % inhibition of CETP at 10 μM
T1 construct: native CETP in whole rabbit serum, not purified; BioVision fluorescent CE transfer kit (introduction describes human CETP, 476 residues, PDB 2OBD, not the assayed protein)
T1 sequence (P22687 2-497): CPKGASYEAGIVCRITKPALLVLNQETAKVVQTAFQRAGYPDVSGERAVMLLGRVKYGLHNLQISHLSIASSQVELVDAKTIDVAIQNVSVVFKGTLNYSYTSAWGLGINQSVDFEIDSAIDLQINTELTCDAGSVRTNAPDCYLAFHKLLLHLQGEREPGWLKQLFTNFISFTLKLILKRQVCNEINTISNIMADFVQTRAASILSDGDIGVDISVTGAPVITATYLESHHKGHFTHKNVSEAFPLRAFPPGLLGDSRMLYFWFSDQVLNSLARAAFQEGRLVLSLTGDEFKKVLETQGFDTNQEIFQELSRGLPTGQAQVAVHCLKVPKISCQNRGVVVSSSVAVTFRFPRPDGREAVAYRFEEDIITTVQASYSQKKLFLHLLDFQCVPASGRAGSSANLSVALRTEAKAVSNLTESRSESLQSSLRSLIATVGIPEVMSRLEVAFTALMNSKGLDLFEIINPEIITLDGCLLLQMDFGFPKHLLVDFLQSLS
Text: fluorescent neutral lipid (CE) transfer assay, BioVision kit on CETP (from rabbit serum)

SMILES	inhibition at 10 µM [%]
COc1cccc(CNc2ccc(C(=O)c3ccc(C)cc3)cc2)c1 [compound 19, [4-(3-Methoxybenzylamino)phenyl]-p-tolyl-methanone]	16.4 ± 3
Cc1ccc(C(=O)c2ccc(NCc3cccc(C(F)(F)F)c3)cc2)cc1 [compound 21, p-Tolyl-[4-(3-trifluoromethylbenzylamino)phenyl]-methanone]	16.7 ± 0.6
COc1ccc(C(=O)c2ccc(NCc3ccc(C(F)(F)F)cc3)cc2)c(OC)c1 [compound 30, (2,4-Dimethoxyphenyl)-[4-(4-trifluoromethylbenzylamino)phenyl]-methanone]	19.8 ± 2.9
COc1ccc(C(=O)c2ccc(NCc3cccc(C(F)(F)F)c3)cc2)c(OC)c1 [compound 29, (2,4-Dimethoxyphenyl)-[4-(3-trifluoromethylbenzylamino)phenyl]-methanone]	19.5 ± 0.6
Cc1ccc(C(=O)c2ccc(NCc3ccc(C(F)(F)F)cc3)cc2)cc1 [compound 22, p-Tolyl-[4-(4-trifluoromethylbenzylamino)phenyl]-methanone]	12.6 ± 2.6
